Laboratory results taken from the METLIN SMRT retention time set (Domingo-Almenara et al. 2019).

Experiment: gradient 5% acetonitrile 3 min, to 50% in 2 min, to 85% in 15 min, held 3 min, 100 µL/min
Conditions: column: Zorbax Extend-C18 2.1 x 50 mm; eluents: water / acetonitrile, 0.1% formic acid
How it was run: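 Over 3 months, pure standards in mixtures of ~100 molecules were run by HPLC coupled to a quadrupole time-of-flight mass spectrometer in positive and negative ionization mode. The column was a Zorbax Extend-C18 (2.1 × 50 mm, 1.8 μm) at 100 μL/min, eluted with water and acetonitrile each holding 0.1% formic acid, with 40 μL dead and 900 μL dwell volumes. Retention time was determined from adduct peaks chosen by software and checked manually.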

RP-LC retention time | Structure (SMILES)
822 s | COc1ccccc1-c1nnc(NC(=O)c2ccc3c(c2)CCCC3)o1
888 s | Cc1cccc(C(=O)Nc2ccc(N3CCN(C4CCCC4)C3=O)nc2)c1
1110 s | Cc1cccc(-c2noc(CN3C(=O)C(C)Oc4ccccc43)n2)c1 (stereo unspecified)
841 s | Cc1nc2c(sc3cccc(F)c32)c(=O)n1CC(=O)Nc1ccccc1C(F)(F)F
766 s | CCc1ccccc1NC(=O)N1CCC2(CC1)NC(=O)c1cccc(Cl)c1N2
748 s | Cc1ccc(-c2ccc(-n3nc(C)c(S(=O)(=O)NCCN4CCCCC4C)c3C)nn2)cc1C (stereo unspecified)
615 s | Cc1nc(NC(=O)C2COCC(=O)N2Cc2ccccc2)sc1C(=O)N(C)C (stereo unspecified)
1080 s | CN1C(=O)C(C)(C)N(Cc2ccccc2)c2ccccc21
1390 s | Cc1cc(C)c2c(=O)n(Cc3nc(-c4ccccc4Cl)oc3C)c(=O)n(Cc3ccco3)c2n1
1240 s | CCCCC(CC)C(=O)Nc1nc(-c2ccc(Cl)cc2)cs1 (stereo unspecified)
617 s | CCCc1nc2cccnc2n1C1CCN(C(=O)Nc2cccc(OC)c2)C1 (stereo unspecified)
744 s | CC(C)Oc1ccc(CNC(=O)CCc2c(-c3ccc(Br)cc3)nc3ccccn23)cc1
614 s | Cc1ccc(C)c(-n2ncc3c(N4CCN(C)CC4)ncnc32)c1
1110 s | CCSc1nc2ccc(NS(=O)(=O)c3ccc(C)cc3C)cc2s1
756 s | COC(=O)c1cc(OCC(=O)Nc2ccc(OC)c(OC)c2)c2cc(F)ccc2n1
797 s | CC(C)c1ccc(NC(=O)C2CCN(S(=O)(=O)c3cn(C)cn3)CC2)cc1
620 s | COc1ccc(OC)c(CN2CCn3c(nn(CC4CC4)c3=O)C2)c1
907 s | CCc1ccc(Nc2nc(C(=O)NCCc3cccs3)nc3ccccc23)cc1
784 s | CCc1noc(-c2ccnc(-n3cnc(C(=O)NC(C)C)c3)c2)n1
610 s | O=C(NCCc1ccncc1)C1CN(C(=O)c2cccs2)CC12CCCCC2 (stereo unspecified)
633 s | Cc1cc(N2CCN(C(=O)Nc3cccc(C)c3C)CC2)nc(N2CCOCC2)n1
959 s | CCN1C(=O)c2cc(S(=O)(=O)Nc3ccccc3)ccc2Oc2cccnc21
739 s | CNC(=O)c1nc(C(=O)NCc2ccc(C)cc2)cs1

RP-LC retention time | Structure (SMILES)
869 s | COc1cccc(C(=O)NC2CCN(c3ccc(C)c(C)c3)C2=O)c1 (stereo unspecified)
830 s | CC(=O)N1c2ccc(S(=O)(=O)N3CCCCC3)cc2CC1C(=O)NC1CCCC1 (stereo unspecified)
1120 s | O=S(=O)(Nc1ccc(-c2noc(COc3ccc(Cl)cc3)n2)cc1)c1cccs1
774 s | Cc1ccc(NC(=O)N2CCC(N3CCN(Cc4ccc(F)cc4)C(=O)C3=O)CC2)cc1C
717 s | CCc1ccccc1NC(=O)Nc1cccc(-c2ccc(N3CCOCC3)nn2)c1
1130 s | COc1c(Sc2ccc([N+](=O)[O-])cc2)c(C)nn1-c1ccccc1
894 s | CC(C)N1C(=O)C(C)(C(=O)NCc2ccc3c(c2)OCO3)Oc2cccnc21 (stereo unspecified)
604 s | CC(C)NC(=O)c1ccc2nc(-c3ccccc3)cn2c1
857 s | CCCc1ccc(S(=O)(=O)N2CCC3(CC2)NCCCN=C3NC2CCCC2)cc1
659 s | Fc1ccccc1-c1ccc(CNCc2ccco2)o1
924 s | Cc1csc(-c2cc(S(=O)(=O)NCc3cccs3)c(C)n2C)n1
853 s | Cc1cccc(NC(=O)N2CCC(N3CCN(Cc4ccccc4)C3=O)CC2)c1
998 s | Cc1ccc(CNC(=O)C2(C)CCN(S(=O)(=O)c3ccccc3Cl)CC2)cc1
1030 s | O=C(Nc1ccc(Cl)cc1)C(=O)c1c[nH]c2ccccc12
696 s | N#CC1=C(SCC(=O)Nc2nccs2)NC(=O)CC1c1ccccc1F (stereo unspecified)
745 s | O=C1NCCCCCCN(C(=O)c2cccs2)[C@H]2CCC[C@@H]12
546 s | Cc1cc(C)n(CCN2CCN(C(=O)C3CCC3)CC2)n1
582 s | Cc1nccn1C1CN(C(=O)c2ccc3cc[nH]c3c2)C1
804 s | Cc1cccc(CN2CCN(C3CCN(C(=O)Nc4ccc5c(c4)OCCO5)CC3)C2=O)c1
804 s | Cn1cccc1-c1cc2n(n1)CCC(=O)N2CCCC(=O)NCc1cccc(Cl)c1
1070 s | CCc1nc(-c2cc(S(=O)(=O)N3CCC(C(=O)NC4CCCCCC4)CC3)c(C)s2)no1
1040 s | Cc1ccc(C)c(S(=O)(=O)N2CC(c3nc(Cc4ccccc4)no3)C2)c1
1170 s | CC1CCN(c2nc3c(c(=O)n(Cc4ccccc4Cl)c(=O)n3C)n2C)CC1

RP-LC retention time | Structure (SMILES)
846 s | CC(=O)c1ccc(NC(=O)Cn2cc(-c3ccccc3)c3ncn(C4CC4)c(=O)c32)cc1
982 s | C=CCSc1nc2ccccc2c2nc(C)nn12
752 s | O=S(=O)(CCc1ccccc1)N1CCN(c2ccc3nnc(-c4ccco4)n3n2)CC1
886 s | CCc1cccc(NC(=O)Cc2nc(C)c(C(=O)NCC(C)C)s2)c1
703 s | Cc1ccc(NC(=O)Cn2nc3n(c2=O)CCCCC3)c(C)c1
872 s | CCCn1ccc2sc(C)c(C(=O)N3CCN(c4ccc(F)cc4)CC3)c2c1=O
730 s | CCCNC(=O)N1CC(Oc2cccc(-c3nc(C)no3)c2)C1
888 s | O=S(=O)(c1ccccc1)N1CC(n2cc(COc3ccc(F)cc3)nn2)C1
922 s | COc1ccc(NC(=O)CN2CCc3[nH]c4c(C)cc(C)cc4c(=O)c3C2)cc1OC
740 s | c1ccc(CN2CCc3c(sc4ncnc(N5CCOCC5)c34)C2)cc1
1070 s | CCN1C(=O)COc2ccc(-c3csc(NC(=O)CCc4ccc(C)cc4)n3)cc21
844 s | COCc1cc(=O)n(CC(=O)Nc2ccc(C)cc2C)c(N2CCOCC2)n1
1220 s | COc1ccc(-n2c(=O)c(C(=O)NC(C)c3ccc(F)cc3)c(O)c3cccnc32)cc1 (stereo unspecified)
697 s | COc1ccc(C(=O)N2CCN(c3c(C)n(C)c(=O)n(C)c3=O)CC2)cc1
819 s | CCn1ccc(C(=O)N2CC(Oc3ccc(-c4nc(C)no4)cc3)C2)n1
680 s | CCc1ccc(S(=O)(=O)c2cnc(N3CCN(c4ccccn4)CC3)nc2N)cc1
573 s | Cc1nnc2n1CCC(NC(=O)Cc1ccsc1)CC2 (stereo unspecified)
931 s | Cc1ccc(C(=O)Nc2nc(-c3ccc4c(c3)NC(=O)CO4)c(C)s2)cc1
730 s | Cc1nc(-c2ccc(OC3CCN(C(=O)NC(C)C)C3)cc2)no1 (stereo unspecified)
1060 s | CCN(CC)S(=O)(=O)c1ccc(-n2cnc(C(=O)Nc3cc(C(C)(C)C)ccc3O)c2)cc1
660 s | Cc1cccc2nnc(N3CCC(C(=O)NCc4ccccc4)CC3)n12
854 s | CCc1ccc(NS(=O)(=O)c2cc(-c3ccn[nH]3)sc2C)cc1
590 s | Cc1oc(-c2ccc(C(=O)NCCN(C)C)cc2)nc1CS(=O)c1ccccc1 (stereo unspecified)

RP-LC retention time | Structure (SMILES)
1020 s | Cc1nc(-c2csc(S(=O)(=O)N3CCCC(C(=O)Nc4ccc(F)c(F)c4)C3)c2)no1 (stereo unspecified)
839 s | CCCS(=O)(=O)N1CCCN(C2=NS(=O)(=O)C(c3ccccc3)=C2C)CC1
557 s | CCn1cc(C(=O)NCCn2c(C)cnc2C2CCC2)cn1
1070 s | CCOc1ccc(-c2csc(NC(=O)CS(=O)(=O)c3ccc(Cl)cc3)n2)cc1
631 s | NS(=O)(=O)c1ccc(CNC(=O)C2CN(C(=O)c3ccc(F)c(F)c3)C2)cc1
617 s | O=C(Cc1csc(COc2ccccc2)n1)N1CCN(c2ccccn2)CC1
1010 s | Cc1nc2cc(-c3noc(/C=C/c4ccco4)n3)ccc2o1
766 s | O=C(NCc1ccco1)Nc1ccccc1Cl
1040 s | CO/N=C1/C=C(C)C(=O)C(C)=C1C
665 s | O=C(NCc1cccnc1)c1cc(-c2ccc3c(c2)OCO3)nc2ccccc12
711 s | O=C(Cn1cccc1-c1nc(-c2ccc(Cl)cc2)cs1)NCCN1CCOCC1
791 s | CCN(CC)c1ccc(Nc2nc(-c3ccc(Cl)cc3)cs2)cc1
885 s | CN(CCc1noc(COc2ccccc2F)n1)C(=O)c1c(F)cccc1F
1050 s | COc1ccc(C2(C(=O)N3CCC(Cc4nc(-c5ccccc5)no4)CC3)CC2)cc1
1140 s | CC(C)OC(=O)COC(=O)c1cn(-c2cccc(Cl)c2)c(=O)c2ccccc12
711 s | Cc1nnc2ccc(S(=O)(=O)Nc3ccc(Cl)cc3)cn12
701 s | O=C(CCn1cnc2cc(-c3noc(-c4cccc5[nH]ccc45)n3)ccc21)N1CCCC1
836 s | CCn1nccc1C(=O)N1CCCC1c1ccccc1C (stereo unspecified)
638 s | Cc1ccc(-c2cc(C(=O)N3CCN(c4ccc(N5CCOCC5)nn4)CC3)[nH]n2)c(C)c1
751 s | CN1c2ccc(F)cc2C(=O)NC12CCN(C(=O)c1cccc(F)c1)CC2
841 s | CCSc1ccccc1C(=O)NC(C)Cc1ccco1 (stereo unspecified)

Structure (SMILES) | RP-LC retention time
c1cnc2c(c1)ccc1ncccc12 | 674 s
